The structures appear in SMILES notation. Read-outs that look alike come from different tables or passages of the source.

The results in this text go back to patent US20210395256A1, “TYROSINE KINASE INHIBITORS, COMPOSITIONS AND METHODS THERE OF” (Betta Pharmaceuticals Co., Ltd., priority 2018, published 2021).

Series [1] addresses TrkA kinase (Homo sapiens, UniProt P04629). Put plainly: TrkA kinase assay (mobility shift assay). The note with it: read-out: Trk A Kinase IC50. It counts as biochemical. The essentials: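 Caliper mobility-shift readout of FAM-labelled peptide conversion by TrkA in 50 mM HEPES pH 7.5, 0.0015% Brij-35, with ATP; enzyme preincubated 10 min with compound (10-point dilution), reaction at 28 °C, EDTA stop. Inhibition relative to DMSO and no-enzyme controls; IC50 by four-parameter fit.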

A short description of series [2]: Liver microsomes metabolic stability assay, human. In kind it is in vitro ADME. The note with it: human liver microsomes 0.5 mg/mL, 37° C.; for half-life at 2 μM: read-out: t1/2 Human. The protocol: (§1) Example 203 Liver Microsomes Metabolic Stability Assay
(§2) Pooled human liver microsomes (Cat. 452117) were purchased from Corning. Pooled male rat liver microsomes (Cat. R1000) and pooled male mouse liver microsomes (Cat. M1000) were purchased from XENOTECH. Microsomes were stored at −80° C.
(§3) 1) Make a master solution containing phosphate buffer, ultra-pure H2O and MgCl2 solution according to Table 14.
(§4) 2) Two separated experiments were performed as follows.
(§5) a) With NADPH: 10 μL of 20 mg/mL liver microsomes and 40 μL of 10 mM NADPH were added to the incubations. The final concentrations of microsomes and NADPH were 0.5 mg/mL and 1 mM, respectively.
(§6) b) Without NADPH: 10 μL of 20 mg/mL liver microsomes and 40 μL of ultra-pure H2O were added to the incubations. The final concentration of microsomes was 0.5 mg/mL.
(§7) 3) The reaction was started with the addition of 4 μL test compounds solutions or control compound solution (verapamil) at the final concentration of 2 μM and carried out at 37° C.
(§8) 4) Aliquots of 50 μL were taken from the reaction solution at 0, 15, 30, 45 and 60 min. The reaction solutions were stopped by the addition of 4 volumes of cold acetonitrile with 1S (100 nM alprazolam, 200 nM caffeine, 200 nM labetalol and 2 μM ketoprofen). Samples were centrifuged at 3,220 g for 40 minutes. Aliquot of 100 μL of the supernatant was mixed with 100 μL of ultra-pure H2O and then used for LC-MS/MS analysis. All experiments were performed in duplicate.
(§9) The slope value, k, was determined by linear regression of the natural logarithm of the remaining percentage of the parent drug vs. incubation time curve.
(§10) The in vitro half-life (in vitro t1/2) was determined from the slope value:
(§11) Conversion of the in vitro t1/2 (in min) into the in vitro intrinsic clearance (in vitro CLint, in μL/min/mg proteins) was done using the following equation (mean of duplicate determinations): […]
(§12) The control compound (verapamil) was included in the assay. Any value of the compounds that was not within the specified limits will be rejected and the experiment will be repeated.

Series [3] in a line: Liver microsomes metabolic stability assay, rat. The note with it: male, rat liver microsomes 0.5 mg/mL, 37° C.; for half-life at 2 μM: read-out: t1/2 Rat. It counts as in vitro ADME. The protocol:
as §1, §2, §3, §4, §5, §6, §7, §8, §9, §10, §11, §12

Series [4] in a line: Liver microsomes metabolic stability assay, mouse. In kind it is in vitro ADME. The settings on record: male, mouse liver microsomes 0.5 mg/mL, 37° C.; for half-life at 2 μM: read-out: t1/2 Mouse. The protocol: as §1, §2, §3, §4, §5, §6, §7, §8, §9, §10, §11, §12

Chain of TrkA kinase (P04629 33-796): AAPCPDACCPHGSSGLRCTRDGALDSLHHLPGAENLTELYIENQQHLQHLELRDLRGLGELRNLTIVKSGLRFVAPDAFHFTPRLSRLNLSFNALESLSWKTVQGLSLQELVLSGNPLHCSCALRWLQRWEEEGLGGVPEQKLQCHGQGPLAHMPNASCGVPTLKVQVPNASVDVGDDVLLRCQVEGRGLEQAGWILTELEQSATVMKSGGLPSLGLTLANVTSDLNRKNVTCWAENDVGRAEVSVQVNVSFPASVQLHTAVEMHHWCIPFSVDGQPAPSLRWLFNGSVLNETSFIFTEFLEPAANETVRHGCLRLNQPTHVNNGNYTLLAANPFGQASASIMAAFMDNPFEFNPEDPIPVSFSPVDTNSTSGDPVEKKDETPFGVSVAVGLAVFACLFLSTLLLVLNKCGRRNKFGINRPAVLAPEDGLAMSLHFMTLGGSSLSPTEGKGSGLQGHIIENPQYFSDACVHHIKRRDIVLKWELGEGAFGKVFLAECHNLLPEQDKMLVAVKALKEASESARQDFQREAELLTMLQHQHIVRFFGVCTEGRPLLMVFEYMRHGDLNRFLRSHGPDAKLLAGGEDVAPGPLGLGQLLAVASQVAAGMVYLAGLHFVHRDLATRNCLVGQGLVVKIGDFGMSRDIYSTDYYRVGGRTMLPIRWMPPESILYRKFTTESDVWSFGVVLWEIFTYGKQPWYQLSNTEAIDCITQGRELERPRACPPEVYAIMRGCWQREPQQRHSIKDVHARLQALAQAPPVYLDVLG

Regarding `C[C@@](O)(c1nnc(-c2cnn3ccc(N4CCC[C@@H]4c4cc(F)ccc4F)nc23)[nH]1)C(F)(F)F` [Compound 26, (R)-2-(5-(5-((R)-2-(2,5-difluorophenyl)pyrrolidin-1-yl)pyrazolo[1,5-a]pyrimidin-3-yl)-4H-1,2,4-triazol-3-yl)-1,1,1-trifluoropropan-2-ol], the concentration for half-maximal inhibition (IC50) in series [1] (numeric values) stood at 2.6 nM. Further, the microsomal CLint at 2 μM in series [2] amounted to 23 µL/min/mg; in series [3], 40.5 µL/min/mg; in series [4] it was 25.9 µL/min/mg. Moreover, the half-life at 2 μM in series [2] came to 1 h; in series [3] it was 0.57 h; in series [4], 0.892 h.
Consider `Fc1ccc(F)c([C@H]2CCCN2c2ccn3ncc(-c4nc5cnccc5[nH]4)c3n2)c1` [Compound 65, (R)-2-(5-(2-(2,5-difluorophenyl)pyrrolidin-1-yl)pyrazolo[1,5-a]pyrimidin-3-yl)-1H-imidazo[4,5-c]pyridine], for which the IC50 in series [1] (numeric values) worked out at 0.27 nM. The microsomal CLint at 2 μM in series [2] came out at 12.6 µL/min/mg; in series [3], 17.2 µL/min/mg; in series [4], 24 µL/min/mg. The values for the half-life at 2 μM in series [2], in series [3] and in series [4] were 1.83 h, 1.34 h and 0.963 h, respectively.
Take `Fc1ccc(F)c([C@H]2CCCN2c2ccn3ncc(-c4nnc(-c5ccc6c(c5)CCNC6)[nH]4)c3n2)c1` [Compound 36, (R)-6-(5-(5-(2-(2,5-difluorophenyl)pyrrolidin-1-yl)pyrazolo[1,5-a]pyrimidin-3-yl)-4H-1,2,4-triazol-3-yl)-1,2,3,4-tetrahydroisoquinoline]: the IC50 in series [1] (numeric values) came out at 1.14 nM. Besides, the intrinsic metabolic clearance (microsomal CLint) at 2 μM was 4.4 µL/min/mg in series [2], 19.2 µL/min/mg in series [3] and 4.6 µL/min/mg in series [4]. The half-life at 2 μM in series [2] worked out at 5.25 h; in series [3], 1.2 h; in series [4] it was 5.02 h.
In the case of `COc1ccc2nc(-c3cnn4ccc(N5CCC[C@@H]5c5cc(F)ccc5F)nc34)[nH]c2n1` [Compound 84, (R)-2-(5-(2-(2,5-difluorophenyl)pyrrolidin-1-yl)pyrazolo[1,5-a]pyrimidin-3-yl)-5-methoxy-3H-imidazo[4,5-b]pyridine], in series [1] (numeric values), the half-maximal inhibitory concentration (IC50) was 0.18 nM.
With `Fc1ccc(F)c([C@H]2CCCN2c2ccn3ncc(-c4nnc5n4CCOC5)c3n2)c1` [Compound 200, (R)-3-(5-(2-(2,5-difluorophenyl)pyrrolidin-1-yl)pyrazolo[1,5-a]pyrimidin-3-yl)-5,6-dihydro-8H-[1,2,4]triazolo[3,4-c][1,4]oxazine], the IC50 in series [1] (class symbols) was in the range of 10 to 50 nM.
As for `Fc1ccc(F)c([C@H]2CCCN2c2ccn3ncc(-c4nc5c(s4)CCNC5)c3n2)c1` [Compound 189, (R)-2-(5-(2-(2,5-difluorophenyl)pyrrolidin-1-yl)pyrazolo[1,5-a]pyrimidin-3-yl)-4,5,6,7-tetrahydrothiazolo[4,5-c]pyridine], in series [1] (class symbols), the IC50 was ≤ 10 nM.
Take `CNc1cc2[nH]c(-c3cnn4ccc(N5CCC[C@@H]5c5cc(F)ccc5F)nc34)nc2cc1C#N` [Compound 142, (R)-2-(5-(2-(2,5-difluorophenyl)pyrrolidin-1-yl)pyrazolo[1,5-a]pyrimidin-3-yl)-6-(methylamino)-1H-benzo[d]imidazole-5-carbonitrile]: the half-inhibitory concentration (IC50) in series [1] (class symbols) is ≤ 10 nM.
`N#Cc1cc2nc(-c3cnn4ccc(N5CCC[C@@H]5c5cc(F)ccc5F)nc34)[nH]c2cc1N1CCC[C@H]1C#N` [Compound 165, 6-((S)-2-cyanopyrrolidin-1-yl)-2-(5-((R)-2-(2,5-difluorophenyl)pyrrolidin-1-yl)pyrazolo[1,5-a]pyrimidin-3-yl)-1H-benzo[d]imidazole-5-carbonitrile]: the 50% inhibitory concentration (IC50) in series [1] (class symbols) was ≤ 10 nM.
As for `Fc1ccc(F)c([C@H]2CCCN2c2ccn3ncc(-c4nc5cnc(N6CCOCC6)cc5[nH]4)c3n2)c1` [Compound 64, (R)-4-(2-(5-(2-(2,5-difluorophenyl)pyrrolidin-1-yl)pyrazolo[1,5-a]pyrimidin-3-yl)-1H-imidazo[4,5-c]pyridin-6-yl)morpholine], the 50% inhibitory concentration (IC50) in series [1] (class symbols) was > 50 nM.
Consider `COc1cc2[nH]c(-c3cnn4ccc(N5CCC[C@@H]5c5cccc(F)c5)nc34)nc2cc1C#N` [Compound 196, (R)-2-(5-(2-(3-fluorophenyl)pyrrolidin-1-yl)pyrazolo[1,5-a]pyrimidin-3-yl)-6-methoxy-1H-benzo[d]imidazole-5-carbonitrile], for which, in series [1] (numeric values), the IC50 amounted to 2.6 nM.
As for `N#Cc1ccc2nc(-c3cnn4ccc(N5CCC[C@@H]5c5cc(F)ccc5F)nc34)[nH]c2c1` [Compound 107, (R)-2-(5-(2-(2,5-difluorophenyl)pyrrolidin-1-yl)pyrazolo[1,5-a]pyrimidin-3-yl)-1H-benzo[d]imidazole-6-carbonitrile], the concentration for half-maximal inhibition (IC50) in series [1] (class symbols) was ≤ 10 nM.
As to `COc1ccc2nc(-c3cnn4ccc(N5CCC[C@@H]5c5cc(F)ccc5F)nc34)[nH]c2c1` [Compound 77, (R)-5-(2-(2,5-difluorophenyl)pyrrolidin-1-yl)-3-(6-methoxy-1H-benzo[d]imidazol-2-yl)pyrazolo[1,5-a]pyrimidine], the half-maximal inhibitory concentration (IC50) in series [1] (numeric values) was 0.7 nM.
For the molecule `Fc1ccc(F)c([C@H]2CCCN2c2ccn3ncc(-c4nc5c(s4)CNCC5)c3n2)c1` [Compound 190, (R)-2-(5-(2-(2,5-difluorophenyl)pyrrolidin-1-yl)pyrazolo[1,5-a]pyrimidin-3-yl)-4,5,6,7-tetrahydrothiazolo[5,4-c]pyridine], in series [1] (class symbols), the IC50 is ≤ 10 nM.
Take `OC12CC3CC(C1)CC(c1nnc(-c4cnn5ccc(N6CCC[C@@H]6c6cc(F)ccc6F)nc45)[nH]1)(C3)C2` [Compound 37, (1R,3r)-3-(5-(5-((R)-2-(2,5-difluorophenyl)pyrrolidin-1-yl)pyrazolo[1,5-a]pyrimidin-3-yl)-4H-1,2,4-triazol-3-yl)adamantan-1-ol]: in series [1] (numeric values), the IC50 stood at 1.57 nM.
Turning to `COc1cc2nc(-c3cnn4ccc(N5CCC[C@@H]5c5cc(F)ccc5F)nc34)nn2cc1OC` [Compound 182, (R)-2-(5-(2-(2,5-difluorophenyl)pyrrolidin-1-yl)pyrazolo[1,5-a]pyrimidin-3-yl)-6,7-dimethoxy-[1,2,4]triazolo[1,5-a]pyridine], in series [1] (class symbols), the IC50 lay in the range of 10 to 50 nM.
The same measure, in the same setting: in the case of `N#Cc1cc2nc(-c3cnn4ccc(N5CCC[C@@H]5c5cc(F)ccc5F)nc34)[nH]c2cc1Br` [Compound 151, (R)-6-bromo-2-(5-(2-(2,5-difluorophenyl)pyrrolidin-1-yl)pyrazolo[1,5-a]pyrimidin-3-yl)-1H-benzo[d]imidazole-5-carbonitrile] it was ≤ 10 nM.
The same measure, in the same setting: in the case of `CCOc1cc2[nH]c(-c3cnn4ccc(N5CCC[C@@H]5c5cc(F)ccc5F)nc34)nc2cc1C#N` [Compound 140, (R)-2-(5-(2-(2,5-difluorophenyl)pyrrolidin-1-yl)pyrazolo[1,5-a]pyrimidin-3-yl)-6-ethoxy-1H-benzo[d]imidazole-5-carbonitrile] it was ≤ 10 nM; in that of `COc1cc2nc(-c3cnn4ccc(N5CCC[C@@H]5c5cc(F)ccc5F)nc34)cn2cc1OC` [Compound 199, (R)-5-(2-(2,5-difluorophenyl)pyrrolidin-1-yl)-3-(6,7-dimethoxyimidazo[1,2-a]pyridin-2-yl)pyrazolo[1,5-a]pyrimidine], 10 to 50 nM.
For `NC12CC(c3nnc(-c4cnn5ccc(N6CCC[C@@H]6c6cc(F)ccc6F)nc45)[nH]3)(C1)C2` [Compound 44, (R)-3-(5-(5-(2-(2,5-difluorophenyl)pyrrolidin-1-yl)pyrazolo[1,5-a]pyrimidin-3-yl)-4H-1,2,4-triazol-3-yl)bicyclo[1.1.1]pentan-1-amine], the IC50 in series [1] (numeric values) turned out to be 5.28 nM.
For the molecule `COc1cccc2oc(-c3cnn4ccc(N5CCC[C@@H]5c5cc(F)ccc5F)nc34)nc12` [Compound 100, (R)-2-(5-(2-(2,5-difluorophenyl)pyrrolidin-1-yl)pyrazolo[1,5-a]pyrimidin-3-yl)-4-methoxybenzo[d]oxazole], the IC50 in series [1] (numeric values) worked out at 1 nM.
Turning to `N#Cc1cc2nc(-c3cnn4ccc(N5CCC[C@@H]5c5cc(F)ccc5F)nc34)oc2cc1O` [Compound 177, (R)-2-(5-(2-(2,5-difluorophenyl)pyrrolidin-1-yl)pyrazolo[1,5-a]pyrimidin-3-yl)-6-hydroxybenzo[d]oxazole-5-carbonitrile], the IC50 in series [1] (numeric values) was found to be 1.2 nM.
